Several values for one entry are separate records, joined by “and”; a condition that tells them apart may be missing. Identical values can stand only once. Entries after “also recorded” stand apart in the source; their conditions may differ. Like-named read-outs stand apart in the source and are kept apart here.
Legend:
[1] = system: KSHV lytic gene expression in SLK.iBAC-GFP cells; assay type: cell-based
[2] = system: interaction between USP7 and ICP0; assay type: cell-based
MHV68 in NIH3T3 cells = assay type: cell-based
[3] = system: KSHV lytic replication in BCBL-1-Tet-K-RTA cells; assay type: cell-based
[4] = system: KSHV lytic reactivation in SLK.iBAC-GFP cells; assay type: cell-based
Protocol: (A) Graphical illustration showing the rationale underlying our peptide design. (B) Surface Plasmon Resonance (SPR) analysis assessing the interaction of the USP7-TRAF domain with the designed peptides p2 and p8. (C) SLK.iBAC-GFP cells were induced with doxycycline (Dox, 1 μg/mL) and sodium butyrate (0.5 mM) in the presence of the Tat fusion peptides (100 μM). All the peptides were fused to an N-terminal Tat47-57 peptide ([…]) via a flexible GG linker. The supernatants containing infectious virions were collected 48 h post-induction and used to infect HEK293T cells. KSHV infectious units were calculated based on the percentage of GFP-positive cells determined by flow cytometry. Data are mean ± s.d. of N = 3 independent biological replicates. (D) SLK.iBAC-GFP cells were induced with doxycycline (Dox, 1 μg/mL) and sodium butyrate (0.5 mM) in the presence of increasing amount of p8 (0, 10, 50, 100 μM). KSHV infectious units were determined 48 h post-induction. Data are mean ± s.d. of N = 3 independent biological replicates. […] Data are mean ± s.d. of N = 3 independent biological replicates. […] Cell viability was assessed by measuring ATP levels 48 h post-induction. Data are mean ± s.d. of N = 3 independent biological replicates.
Peptides p1 to p12 (S1A Fig) were synthesized by Sangon Biotech (Shanghai, China) with 95% purity. The Tat-fused peptides in Fig 1C consisted of the corresponding peptides conjugated to the Tat47-57 peptide ([…]) and two glycine linker residues (QYAOBIO, Suzhou, China). The peptides p8-DRI (nssqsasqnvpprrrqrrkkrGy) and p2-DRI (iesndedavepprrrqrrkkrGy) were synthesized using D-amino acids in a retro-reversed sequence with 95% purity (QYAOBIO, Suzhou, China). The peptide p8-m ([…]) was synthesized with 95% purity (QYAOBIO, Suzhou, China). All the peptides were acetylated at the N-terminus and amidated at the C-terminus to mimic the native peptide structure. The peptides were dissolved in PBS to prepare 1 mM stock solutions for in vitro experiments and 5 mg/ml stock solutions for in vivo experiments.
SLK.iBAC-GFP cells were treated with Dox (1 μg/ml) and sodium butyrate (0.5 mM) to induce lytic reactivation in the presence of indicated peptides (100 μM). The supernatants were collected at the specified time points and used to infect HEK293T cells at appropriate dilutions. The infected cells were collected, fixed, and analyzed by flow cytometry 24 h post-infection. FlowJo 10.0 software was used to analyze the data, and KSHV infectious units were quantified based on the percentage of GFP-positive cells.

[5] = system: KSHV lytic reactivation in OTUD4- or USP7-knockdown SLK.iBAC-GFP cells; assay type: cell-based
[6] = system: interaction between USP7 and MDM2; assay type: cell-based
MHV68 in MLF cells = assay type: cell-based
[7] = system: KSHV lytic gene expression in BCBL-1-Tet-K-RTA cells; assay type: cell-based
[8] = system: interaction between USP7 and p53; assay type: cell-based
SLK.iBAC-GFP cells = assay type: cell-based; conditions: Fig. 1F, 100 μM, 48 h
Protocol: SLK.iBAC-GFP cells were seeded in a 96-well plate at a density of 1 × 10^5 cells/well. The cells were then treated with doxycycline (Dox, 1 μg/ml) and sodium butyrate (0.5 mM) to induce lytic reactivation in the presence of the indicated peptides (100 μM) for 48 h. After treatment and a 30-min equilibration at room temperature, CellTiter-Glo Reagent (Promega, G7570) was added in equal volumes to culture medium. Plates underwent orbital shaking (2 min) for lysis, followed by a 10-min incubation for signal stabilization and luminescence recording (0.25-1 sec integration).

[9] = system: interaction between murine USP7-TRAF and murine OTUD4; assay type: binding; conditions: GST pull-down
RTA in iSLK cells = assay type: cell-based, KSHV
[10] = system: KSHV viral proteins in BCBL-1-Tet-K-RTA cells; assay type: cell-based; conditions: 100 μM
USP7-TRAF domain = molecular target: T1, USP7-TRAF domain (Homo sapiens, UniProt Q93009); experiment: Surface plasmon resonance (SPR) analysis of peptide binding to USP7-TRAF
T1 construct: The TRAF domain of human and murine USP7 (1-208 aa) was subcloned into pGEX-6p-1; GST (N); made in house; host or cells: E. coli BL21 (DE3)

[11] = system: interaction between OTUD4 and USP7-TRAF; experiment: GST pull-down competition assay, human USP7-TRAF and FLAG-OTUD4; assay type: binding; conditions: 100 μM, 4 h
RTA in HEK293T cells = assay type: cell-based, KSHV
[12] = system: OTUD4-USP7 interaction in FLAG-OTUD4-expressing SLK.iBAC-GFP cells; assay type: cell-based
[13] = system: KSHV-RTA-WT lytic reactivation; assay type: cell-based
[14] = system: KSHV genome replication in BCBL-1 cells; experiment: Relative viral genomic copy number (latency) by qPCR in BCBL-1 cells; assay type: cell-based; conditions: 100 μM, 48 h
[15] = system: KSHV latent gene transcription in BCBL-1 cells; assay type: cell-based
[16] = system: KSHV lytic replication in SLK.iBAC-GFP cells transduced with vector control or OTUD4; assay type: cell-based; set-up: KSHV infectious units: unit not given here

T1 sequence (Q93009 1-208): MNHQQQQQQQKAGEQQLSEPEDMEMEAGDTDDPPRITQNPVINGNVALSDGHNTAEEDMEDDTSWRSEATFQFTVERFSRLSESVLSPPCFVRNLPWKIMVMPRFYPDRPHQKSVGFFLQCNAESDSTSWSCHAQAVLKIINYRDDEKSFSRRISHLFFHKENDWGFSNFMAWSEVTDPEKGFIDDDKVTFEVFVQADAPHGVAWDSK

## Ac-YGRKKRRQRRRGGVNQSASQSSN-NH2 [p8]
[1]
  ORF25 gene expression: 0.63 and 0.71 and 0.72
  ORF26 gene expression: 0.64 and 0.65 and 0.71
  ORF50 gene expression: 0.69 and 0.8
  ORF56 gene expression: 0.84 and 0.81 and 0.83
  ORF57 gene expression: 0.74 and 0.75
  Transcription levels of ORF50, ORF56, ORF57, ORF25, ORF26 (in words): decreased the transcription levels of multiple viral genes
[2]
  Effect on USP7-ICP0 interaction (in words): did not affect the interactions
MHV68 in NIH3T3 cells
  Antiviral activity against MHV68 in NIH3T3 cells (in words): potent antiviral activity against MHV68
  ORF9 viral gene expression: 0.25 and 0.26
  ORF25 viral gene expression: 0.28 and 0.26
  ORF50 viral gene expression: 0.24 and 0.22 and 0.27
[3]
  KSHV genome copies in supernatants: 1.3 and 1.45 and 1.47
[3]; 100 μM, 48 h
  Progeny viral genomic copy number (in words): reduced progeny viral genomic copy number
[4]; S2E Fig, 100 μM
  KSHV progeny virion production (in words): significantly reduced KSHV progeny virion production
[4]; Tat-fused peptides, 100 μM or dose series, 48 h post-induction
  Inhibition of KSHV lytic reactivation (in words): effectively inhibited KSHV lytic reactivation in a dose-dependent manner; also recorded: efficiently suppressed KSHV lytic reactivation
[5]
  Antiviral effect in OTUD4-deficient or USP7-deficient cells (in words): abolished
[6]
  Effect on USP7-MDM2 interaction (in words): did not affect the interactions
MHV68 in MLF cells
  Antiviral activity against MHV68 in MLF cells (in words): potent antiviral activity against MHV68
  ORF9 viral gene expression: 0.54 and 0.47 and 0.53
  ORF25 viral gene expression: 0.37 and 0.47 and 0.44
  ORF50 viral gene expression: 0.77 and 0.82 and 0.65
[7]
  ORF25 gene expression: 0.73 and 0.71
  ORF26 gene expression: 0.38 and 0.45 and 0.4
  ORF50 gene expression: 0.4 and 0.44 and 0.49
  ORF56 gene expression: 0.63 and 0.69 and 0.67
  ORF57 gene expression: 0.5 and 0.43 and 0.54
[7]; 100 μM
  Transcription of KSHV lytic genes (in words): decreased transcription of KSHV lytic genes
[8]
  Effect on USP7-p53 interaction (in words): did not affect the interactions
SLK.iBAC-GFP cells
  Cytotoxicity (in words): minimal cytotoxicity
SLK.iBAC-GFP cells; replicate 1
  Cell viability (ATP levels): 91.6982
SLK.iBAC-GFP cells; replicate 2
  Cell viability (ATP levels): 88.8817
SLK.iBAC-GFP cells; replicate 3
  Cell viability (ATP levels): 95.2836
[9]; 100 μM (S5E Fig)
  Relative inhibitory activity on murine USP7-TRAF/murine OTUD4 interaction, p8 vs p8-m (in words): slightly stronger inhibitory activity
[9]; 100 μM, 4 h (S5E Fig)
  Disruption of murine USP7-TRAF/murine OTUD4 interaction (in words): effectively disrupted the interaction
RTA in iSLK cells
  RTA protein level in iSLK cells (in words): reduced the protein level of RTA
[10]
  Viral protein levels (in words): lower levels of viral proteins
USP7-TRAF domain
  Binding to the USP7-TRAF domain (in words): specifically bound to the USP7-TRAF domain
[11]
  Disruption of OTUD4/USP7-TRAF interaction (in words): effectively blocked the interaction between OTUD4 and USP7-TRAF
RTA in HEK293T cells
  Effect on OTUD4-enhanced RTA protein level (in words): countered the promoting effect
[12]
  Co-localization of OTUD4 and USP7 (in words): disrupted the co-localization of OTUD4 and USP7
[13]
  KSHV infectious units: 1.8648 and 1.9224 and 1.6488
[14]
  KSHV genome replication in latency (in words): did not affect KSHV latent gene transcription or genome replication
[15]
  ORF71 mRNA expression: 1.01 and 1.03
  ORF72 mRNA expression: 1.27 and 1.18 and 1.09
  ORF73 mRNA expression: 0.87 and 0.86 and 0.96
[15]; 100 μM, 48 h
  KSHV latent gene transcription (in words): did not affect KSHV latent gene transcription
[16]
  Effect on OTUD4-promoted KSHV lytic replication (in words): negated by p8
  KSHV infectious units: 6.7 and 4.8 and 4.4 and 5.5 and 6.5 and 6.3

— paper PMC12047801, “Disrupting the OTUD4-USP7 deubiquitinase complex to suppress herpesvirus replication: a novel antiviral strategy” (PLOS Pathogens, 2025)
